Patent publication US7288533B2, “Topical application for treating toenail fungus” (priority 2004, dated 2007)

Legend:
[1] = tested for use as a possible sedative; cited from earlier work
Candida albicans = test: Hard surface carrier disinfection test (AOAC 991.47), colony count; format: cell-based; details: for Colonies Of Candida Albicans Observed: carrier 15 min in culture; for Effect on the fungus: 25% loading, summary of Examples 1-15
Procedure: The compositions are evaluated according to an approved surface carrier disinfection test (Official Methods of Analysis of the Association of Official Analytical Chemists protocol 991.47: Hard surface carrier test method). Cultures of Candida albicans are grown for 24 hours at room temperature in trypsin soy broth to a density of approximately McFarland standard #10. Sterile glass cylinders (Belco Cat. #2090-[…]) serve as carriers. The carriers are coated with the test composition or the control composition and subsequently submerged in 5 ml of the stock culture and allowed to remain there for 15 minutes. The carriers are aseptically transferred to sterile, dry Whatman #1 filter paper, and excess droplets of the inoculation medium are removed. The carriers are dried at 37° C. for 40 minutes and then aseptically transferred to 5 ml of trypsin soy broth. They are then sonicated for 10 minutes in as water bath at 25° C. Tubes containing the sonicated carriers are vortexed, and a portion of the medium is placed onto trypsin soy agar plates, and incubated overnight at 37° C. Microbial growth is assessed by counting colonies.

Structure (SMILES)	Toxicity [1]	Colonies Of Candida Albicans Observed (Candida albicans; 0.1 wt. % in mineral oil)	Colonies Of Candida Albicans Observed (Candida albicans; 1.0 wt. % in mineral oil)	Colonies Of Candida Albicans Observed (Candida albicans; 10 wt. % in mineral oil)	Effect on the fungus (Candida albicans)	Colonies Of Candida Albicans Observed (Candida albicans; 25 wt. % in mineral oil)	Colonies Of Candida Albicans Observed (Candida albicans; 50 wt. % in mineral oil)	Colonies Of Candida Albicans Observed (Candida albicans; 75 wt. % in mineral oil)
CCCC1(C)COB(c2ccc(C)cc2)OC1 [I.S. 813, 2-(p-tolyl)-(5-methyl, 5-propyl)-1,3,2,-dioxiborinane]	very low							
CC1CCOB(OCCC(C)OB2OCCC(C)O2)O1 (stereo not drawn) [compound S1, 2,2′-(1-methyltrimethylenedioxy) bis-(4-methyl-1,3,2-dioxaborinane)]		8	2	0	completely destroys the fungus	0	0	0
CC1CC(C)(C)OB(OB2OC(C)CC(C)(C)O2)O1 (stereo not drawn) [compound S2, 2,2′-oxybis (4,4,6-trimethyl-1,3,2-dioxaborinane)]		11	1	0	completely destroys the fungus	0	0	0
